Results taken from ChEMBL document CHEMBL4033770, “Importance of a 4-Alkyl Substituent for Activity in the Englerin Series” (2017).

Tests used:
Assay type in all cases: functional
Hs-578T = assay: Growth inhibition of human Hs 578T cells incubated for 48 hrs by SRB assay
UO-31 = assay: Growth inhibition of human UO31 cells incubated for 48 hrs by SRB assay; conditions: UO-31, 48 h
A498 = assay: Growth inhibition of human A498 cells incubated for 48 hrs by SRB assay; conditions: A498, 48 h
ACHN = assay: Growth inhibition of human ACHN cells incubated for 48 hrs by SRB assay

GI50 (ACHN) [nM]	SMILES	GI50 (Hs-578T) [nM]	GI50 (UO-31) [nM]	GI50 (A498) [nM]
8.3	CC(C)[C@@H]1CC[C@@H]2[C@@H]1[C@H](OC(=O)/C=C/c1ccccc1)[C@@]1(C(C)C)C[C@@H](OC(=O)CO)[C@]2(C)O1	3.2	11	8.1
13	CC[C@@H]1CC[C@@H]2[C@@H]1[C@H](OC(=O)/C=C/c1ccccc1)[C@@]1(C(C)C)C[C@@H](OC(=O)CO)[C@]2(C)O1	4.1	19	38
162	CC(C)[C@]12C[C@@H](OC(=O)CO)[C@](C)(O1)[C@@H]1CCC[C@H]1[C@@H]2OC(=O)/C=C/c1ccccc1	31	182	123
